This is an account of results in US11136352B2, “Immunotherapy against several tumors including neuronal and brain tumors” (IMMATICS BIOTECHNOLOGIES GMBH, priority 2008, dated 2021).

The first assay deals with CD8+ T cells from HLA-A*02+ buffy coats of healthy donors. The assay can be described thus: In vitro priming of CD8+ T cells with pMHC/anti-CD28 coated beads (aAPC), tetramer readout. It is filed as cell-based, human. The note with it: healthy HLA-A*02+ donors; three in vitro stimulations; TUMAP-specific tetramer+ CD8+ T cells. The protocol: To perform in vitro stimulations by artificial antigen presenting cells (aAPC) loaded with peptide-MHC complex (pMHC) and anti-CD28 antibody, first we isolated PBMCs (peripheral blood mononuclear cells) from fresh HLA-A*02+ buffy coats by using standard density gradient separation medium (PAA, Cölbe, Germany). Buffy coats were either obtained from the Blood Bank Tubingen or from the Katharinenhospital Stuttgart. Isolated PBMCs were incubated overnight in T-cell medium (TCM) for human in vitro priming consisting of RPMI-Glutamax (Invitrogen, Karlsruhe, Germany) supplemented with 10% heat inactivated human AB serum (PAA, Cölbe, Germany), 100 U/ml Penicillin/100 μg/ml Streptomycin (Cambrex, Verviers, Belgium), 1 mM sodium pyruvate (CC Pro, Neustadt, Germany) and 20 μg/ml Gentamycin (Cambrex). CD8+ lymphocytes were isolated using the CD8+ MACS positive selection kit (Miltenyi, Bergisch Gladbach, Germany) according to the manufacturer's instructions. […] 800.000 beads/200 μl were coated in 96-well plates in the presence of 600 ng biotin anti-CD28 plus 200 ng relevant biotin-pMHC (high density beads) or 2 ng relevant plus 200 ng irrelevant (pMHC library) MHC (low density beads). Stimulations were initiated in 96-well plates by co-incubating 1×10^6 CD8+ T cells with 2×10^5 washed coated beads in 200 μl TCM supplemented with 5 ng/ml IL-12 (PromoCell) for 3-4 days at 37° C. Half of the medium was then exchanged by fresh TCM supplemented with 80 U/ml IL-2 and incubating was continued for 3-4 days at 37° C. This stimulation cycle was performed for a total of three times. […] Peptide specific cells were calculated as percentage of total CD8+ T cells. Evaluation of tetrameric analysis was done using the software FCS Express (De Novo Software). In vitro priming of specific tetramer+CD8+ lymphocytes was detected by appropriate gating and by comparing to negative control stimulations.
As to `CSCC[C@H](NC(=O)[C@@H](N)[C@@H](C)O)C(=O)N[C@@H](CC(C)C)C(=O)N[C@@H](C)C(=O)N[C@@H](CCCNC(=N)N)C(=O)N[C@@H](CC(C)C)C(=O)N[C@@H](C)C(=O)N[C@@H](CO)C(=O)N[C@@H](C)C(=O)O` [CSP-001], the Positive donors/donors tested worked out at 100% and the Positive wells/wells tested is listed as 57%.
The corresponding values for “ALWAWPSEL (listed as Homo sapiens) [BCA-002, HLA-A*02 peptide from BCAN]” are 75% and 35%.
For “AMTQLLAGV (listed as Homo sapiens) [TNC-001, HLA-A*02 peptide from TNC]”, in that order: 60% and 30%.
For “FLGDPPEKL (listed as Homo sapiens) [BCA-001, HLA-A*02 peptide from BCAN]”, in that order: 60% and 5%.
“GLQSQIAQV (listed as Homo sapiens) [NES-001, HLA-A*02 peptide from NES]” yielded a Positive donors/donors tested of 75% and a Positive wells/wells tested of 38%.
For “GLWHHQTEV (listed as Homo sapiens) [NRCAM-001, HLA-A*02 peptide from NRCAM]”, in that order: 86% and 39%.
The corresponding values for “KIQEILTQV (listed as Homo sapiens) [IGF2BP3-001, HLA-A*02 peptide from IGF2BP3]” are 50% and 21%.
In turn, “LTFGDVVAV (listed as Homo sapiens) [FABP7-001, HLA-A*02 peptide from FABP7]” showed a Positive donors/donors tested of 100% and a Positive wells/wells tested of 27%.
The corresponding values for “NLDTLMTYV (listed as Homo sapiens) [NLGN4X-001, HLA-A*02 peptide from NLGN4X]” are 100% and 62%.
Turning to “QLLAGVFLA (listed as Homo sapiens) [TNC-002, HLA-A*02 peptide from TNC]”, the Positive donors/donors tested is reported as 50% and the Positive wells/wells tested came to 14%.
Compound “SLNELRVLL (listed as Homo sapiens) [CLIP2-001, HLA-A*02 peptide from CLIP2]” had a Positive donors/donors tested of 75% and a Positive wells/wells tested of 6%.
For “TLVGIIVGV (listed as Homo sapiens) [PDPN-001, HLA-A*02 peptide from PDPN]”, in that order: 60% and 11%.
The corresponding values for “YLIAGIISL (listed as Homo sapiens) [SLCO1C1-001, HLA-A*02 peptide from SLCO1C1]” are 60% and 7%.

The next assay has as its system granzyme B-secreting CTLs.
Test: not given
The following applies: type 1 diabetic patients and antibody-positive relatives compared with healthy donors; cited from earlier work.
On to “NLAQDLATV (listed as Homo sapiens) [GFAP-001, HLA-A*02 peptide from GFAP]”, for which the “Reactivity of granzyme B-secreting CTLs” value is listed as “enhanced reactivity”.

The subject of another assay is precursor T cells of glioblastoma patients. The assay can be described thus: In vitro immunogenicity in a small number of glioblastoma patients. It is filed as cell-based, human. The following applies: compared with healthy donors.
As to “ALWAWPSEL (listed as Homo sapiens) [BCA-002, HLA-A*02 peptide from BCAN]”, the “Immunogenicity in glioblastoma patients” value was “immunogenic to a similar extent compared with healthy donors”.
Still for that read-out and setting: the result for “NLDTLMTYV (listed as Homo sapiens) [NLGN4X-001, HLA-A*02 peptide from NLGN4X]” reads “immunogenic to a similar extent compared with healthy donors”.
